Structures can show the parent of a compound that is named as a salt.

We go through one molecule from patent publication US9861590B2, “Self-supporting films for delivery of therapeutic agents” (priority 2010, dated 2018).

This data set in a line: Saturation and payload limits for dip coating bupivacaine HCl solution on polyester mesh (FIG. 8). In kind it is physicochemical. The conditions noted are these: Parietex monofilament polyester mesh without polymer film. From the text: Further, it is believed that spraying films on a medical device (e.g., mesh) compared to other conventional methods, such as dip coating, provides increased loading of the therapeutic agent.
More particularly FIG. 8 illustrates the loading limits for a polyester mesh (Parietex™ monofilament mesh) without a polymer film.

Regarding `CCCCN1CCCCC1C(=O)Nc1c(C)cccc1C` (centres unmarked) [bupivacaine HCl, bupivacaine hydrochloride], the “saturation and payload limits for dip coating solution” value worked out at 12 % w/v (solution in MeOH) and 5 % w/v (solution in water).
